# In patent US20090208934A1, “PECAM-1 GENOTYPE” (The Johns Hopkins University, priority 2005, published 2009):
# Tests used:
# [1] = test system: Ren (+/PM) cells; test: Ren cell aggregation assay; format: cell-based; conditions: 125Val plus 563Asn PECAM-1 transfected, agent added to cell suspension at two concentrations, 90 rpm, 37° C., 20 minutes, FIG. 4
# Method: (§1) FIG. 4 depicts the results of a Ren cell aggregation assay. About 2×10^6 of Ren cells, Ren (−), Ren (+/WT) and Ren (+/PM), were seeded in a T75 flask and cultured for 48 hours for aggregation assays. The monodispersed Ren cells suspension (10^6 cells/ml in HBSS with 1 mM CaCl2) were prepared. Next, two concentrations of anti-PECAM-1 antibody (JHS-7) (A), and human rcPECAM-1 (B) were added in. Then, cells were transfected to wells in a 24-well tissue culture tray (1 mL per well) and rotated on a gyratory shaker (at 90 rpm) at 37° C. for 20 minutes. Data are expressed as the percent of total cells present in aggregates. *P<0.05, **P<0.01.
# (§2) A variation of aggregation assay of Takeichi (59) was adopted. Briefly, confluent culture of Ren cells were detached and dispersed and resuspended to about 10^6 cells/ml in HBSS (37° C.) with 1 mM CaCl2. One ml cell aliquots were transfected to wells in a 24-well plate and rotated on a gyratory shaker (At 90 rpm) at 37° C. for 20 minutes, then stopped by addition of glutaraldehyde to a final concentration of 2%. Aggregation was quantified by examining representative aliquot of equal volumes from each sample on a hemacytometer grid under phase contrast optics. Cells remaining as single cells or present in aggregates (≧3 cells clots) were counted in nine squares. Data are expressed as the percent of total cells present in aggregates.
# [2] = test system: Ren (+/WT) cells; test: Ren cell aggregation assay; format: cell-based; conditions: wild type PECAM-1 transfected, agent added to cell suspension at two concentrations, 90 rpm, 37° C., 20 minutes, FIG. 4
# Method: as §1, §2
substance,measurement,setting,value
"recombinant human PECAM-1 protein: Soluble recombinant PECAM-1 (95˜98 KDa, containing only the extracellular domains), purchased from R&D Systems (Cat# ADP6C)",effect on Ren cell aggregation (percent of total cells present in aggregates),[1],attenuated the aggregation
same,effect on Ren cell aggregation (percent of total cells present in aggregates),[2],attenuated the aggregation
